According to patent US20120027905A1, “POLYENE ANTIFUNGAL COMPOSITIONS” (DSM IP ASSETS B.V., priority 2009, published 2012):

Tests used:
[1] = system: Penicillium italicum (ATCC 36041); experiment: Antifungal efficacy of natamycin/thickener compositions on wounded oranges (dip treatment); assay type: in vivo; details: after 23 days of storage at room temperature; 0.2% (w/v) thickening agent, 1000 μg/ml natamycin; dipped one minute, P. italicum
Method: In a further experiment the antifungal activity of antimicrobial compositions comprising 1000 μg/ml natamycin and 0.2% (w/v) of the thickening agents described above was examined on oranges. The oranges were obtained from a local retailer in The Netherlands. The oranges were treated with spores of the mould Penicillium italicum (ATCC 36041). The mould spores were obtained using well-known methods. The oranges were injured according to the method described by Lapere de Bellaire and Dubois (see Plant disease 81:1378-1383, ([…])). Oranges were wounded three times using a cork borer followed by contamination per wound with 5 μl of a P. italicum spore suspension containing 10^6 spores/ml. After incubation for 1 hour at room temperature, the oranges were dipped for one minute into the freshly prepared antimicrobial compositions, dripped off and dried to the air. The experiment was executed in ninefold. The oranges were stored for 23 days under the conditions as described above and were judged visually on mould development.

[2] = system: Botrytis cinerea (ATCC 12481); experiment: Antifungal efficacy of natamycin/thickener compositions on strawberries; assay type: in vivo; details: after 6 days of storage at room temperature; 0.6% (w/v) thickening agent, 1000 μg/ml natamycin; B. cinerea
Method: In this experiment the antifungal activity of antimicrobial compositions comprising natamycin and the above-mentioned thickening agents was examined on strawberries. Compositions containing thickening agents and the antifungal agent natamycin were prepared as described in Example 1. The compositions comprised a final concentration of 0.6% (w/v) thickening agent and 1000 μg/ml natamycin. Fresh untreated strawberries from a local retailer in The Netherlands were artificially contaminated with 5 μl of a freshly prepared concentrated suspension of spores (10^6 spores/ml) of the mould species Botrytis cinerea (ATCC 12481). The mould spores were prepared using well-known methods. One hour after contamination the strawberries were dipped for one minute into the freshly prepared antimicrobial compositions, dripped off and dried to the air. The experiment was executed in ninefold. The strawberries were stored for 6 days under the conditions as described in Example 1 and were judged visually on mould development.

[3] = system: Aspergillus ochraceus (ATCC 60532); experiment: Antifungal efficacy of natamycin/thickener compositions on fresh coffee beans; assay type: in vivo; details: after 4 days of storage at room temperature; 0.6% (w/v) thickening agent, 1000 μg/ml natamycin; A. ochraceus
Method: In this experiment the antifungal activity of the antimicrobial compositions comprising natamycin and the above-mentioned thickening agents was examined on fresh coffee beans. Compositions containing thickening agents and the antifungal agent natamycin were prepared as described in Example 1. The compositions comprised a final concentration of 0.6% (w/v) thickening agent and 1000 μg/ml natamycin. Fresh untreated coffee beans from a local retailer in The Netherlands were artificially contaminated with 5 μl of a freshly prepared concentrated suspension of spores (10^6 spores/mil) of the mould Aspergillus ochraceus (ATCC 60532). The mould spores were prepared using well-known methods. One hour after contamination the coffee beans were dipped for one minute into the freshly prepared antimicrobial compositions, dripped off and dried to the air. The experiment was executed in ninefold. The coffee beans were stored for 4 days under the conditions as described in Example 1 and were judged visually on mould development.

[4] = cited from earlier work
most fungi = details: for most fungi; cited from earlier work

C[C@@H]1C/C=C/C=C/C=C/C=C/[C@H](O[C@@H]2O[C@H](C)[C@@H](O)[C@H](N)[C@@H]2O)C[C@@H]2O[C@](O)(C[C@@H](O)C[C@H]3O[C@@H]3/C=C/C(=O)O1)C[C@H](O)[C@H]2C(=O)O [Natamycin, natamycin]
Moulded orange wounds (total amount of wounds is 9) [1]: 9 | Moulded strawberries of the total of 9 [2]: 6 | Moulded coffee beans of the total of 9 [3]: 9 | solubility in water [4]: 30 to 50 µg/mL | MIC (Minimal Inhibitory Concentration) (most fungi): less than 10 mg/l
